Values of other authors as cited in patent US20210319872A1, “DRUG AND DEVICE COMBINATION PRODUCTS WITH IMPROVED SAFETY AND EFFICACY PROFILES” (priority 2016, published 2021).
Like-named read-outs stand apart in the source and are kept apart here. Blank lines part the entries; values can stand above or below the molecule they belong to.

[1] = nonvalvular atrial fibrillation

Indigestion (DVT and pulmonary embolism): pulmonary embolism, 7.5%)
Intracranial hemorrhage (DVT and pulmonary embolism): 0.1%
Bleeding (DVT and pulmonary embolism prophylaxis): 10.5%
Bleeding [1]: 16.6%
Bleeding, Major [1]: 3.3%
Gastrointestinal hemorrhage [1]: 6.1%
Gastrointestinal hemorrhage, Major [1]: 1.6%)
Myocardial infarction [1]: 0.7%
Compound: CCCCCCOC(=O)NC(=N)c1ccc(NCc2nc3cc(C(=O)N(CCC(=O)OCC)c4ccccn4)ccc3n2C)cc1 [Pradaxa]
Gastroesophageal reflux disease (Atrial fibrillation): disease (Atrial fibrillation, 5.5%), Gastrointestinal hemorrhage
Serious side effect, Hematologic (listed without frequency): Thrombosis
Serious side effect, Immunologic (listed without frequency): Immunologic: Anaphylaxis
Serious side effect, Respiratory (listed without frequency): Respiratory: Bleeding, Alveolar
Intracranial hemorrhage [1]: (nonvalvular atrial fibrillation, 0.3%; DVT and pulmonary

Compound: Cn1c(CNc2ccc(C(=N)N)cc2)nc2cc(C(=O)N(CCC(=O)O)c3ccccn3)ccc21 [Dabigatran (Pradaxa)]
Bleeding (in vivo): prophylaxis, 10.5%; nonvalvular atrial fibrillation, 16.6%)
Bleeding, Major (in vivo): 0.3% to 1.4%; nonvalvular atrial fibrillation, 3.3%), Thrombosis
Gastroesophageal reflux disease (in vivo): disease (Atrial fibrillation, 5.5%), Gastrointestinal hemorrhage
Indigestion (in vivo): pulmonary embolism, 7.5%)
Myocardial infarction (in vivo): embolism, 0.32% to 0.66%; nonvalvular atrial fibrillation, 0.7%)

Compound: COc1ccc(C(CN(C)C)C2(O)CCCCC2)cc1 (centres unmarked) [Venlafaxine (Effexor)]
Abnormal ejaculation (in vivo): Reproductive: Abnormal ejaculation (2.2% to 19%), Erectile
Asthenia (in vivo): Neurologic: Asthenia (8% to 19%), Dizziness (11% to 23.9%),
Dizziness (in vivo): Neurologic: Asthenia (8% to 19%), Dizziness (11% to 23.9%),
Dream disorder (in vivo): Dream disorder (3% to 7%), Headache (25% to 38%), Insomnia
Erectile dysfunction (in vivo): dysfunction (2.1% to 6%), Orgasm disorder (2% to 5%)
Feeling nervous (in vivo): Psychiatric: Feeling nervous (4% to 21.3%)
Headache (in vivo): Dream disorder (3% to 7%), Headache (25% to 38%), Insomnia
Hypertension (in vivo): Cardiovascular: Hypertension (3% to 13%)
Nausea (in vivo): 22%), Nausea (21% to 58%), Xerostomia (12% to 22%)
Orgasm disorder (in vivo): dysfunction (2.1% to 6%), Orgasm disorder (2% to 5%)
Seizure (in vivo): Neurologic: Seizure (0.3%)
Sweating symptom (in vivo): Dermatologic: Sweating symptom (6.7% to 25%)
Weight loss (in vivo): Endocrine metabolic: Weight loss (3% to 47%)
Xerostomia (in vivo): 22%), Nausea (21% to 58%), Xerostomia (12% to 22%)

Compound: CCOC(=O)C1=C(COCCN)NC(C)=C(C(=O)OC)C1c1ccccc1Cl (centres unmarked) [Amlodipine (Norvasc, Lotrel)]
Abdominal pain (in vivo): Gastrointestinal: Abdominal pain (1.6%), Nausea (2.9%.)
Dizziness (in vivo): Neurologic: Dizziness (Up to 3.4%), Headache (7.3%),
Fatigue (in vivo): Other: Fatigue (4.5%)
Flushing (in vivo): Cardiovascular: Flushing (0.7% to 2.6%), Palpitations (Up to
Headache (in vivo): Neurologic: Dizziness (Up to 3.4%), Headache (7.3%),
Nausea (in vivo): Gastrointestinal: Abdominal pain (1.6%), Nausea (2.9%.)
Palpitations (in vivo): ≤ 4.5%), Peripheral edema (Up to 10.8%)
Peripheral edema (in vivo): ≤ 4.5%), Peripheral edema (Up to 10.8%)
Somnolence (in vivo): Somnolence (1.4%)

Compound: CC1(C)O[C@@H]2[C@@H](CO[C@@]3(COS(N)(=O)=O)OC(C)(C)O[C@@H]23)O1 [Topiramate (Topamax)]
Confusion (in vivo): Neurologic: Confusion (3% to 11%), Dizziness (4% to 25%),
Dizziness (in vivo): Neurologic: Confusion (3% to 11%), Dizziness (4% to 25%),
Fatigue (in vivo): Other: Fatigue (6% to 16%), Fever (1% to 12%)
Fever (in vivo): Other: Fatigue (6% to 16%), Fever (1% to 12%)
Flushing (in vivo): Dermatologic: Flushing (pediatrics, 5%)
Hyperammonemia (in vivo): Endocrine metabolic: Hyperammonemia (Adolescents, 26%),
Impaired cognition (in vivo): Impaired cognition (2% to 7%), Impaired psychomotor
Impaired psychomotor performance (in vivo): performance (2% to 13%), Memory impairment (3% to 12%),
Infectious disease (in vivo): Immunologic: Infectious disease (2% to 8%)
Memory impairment (in vivo): performance (2% to 13%), Memory impairment (3% to 12%),
Nephrolithiasis (in vivo): Renal: Nephrolithiasis (adults, 1% to 3%)
Serious side effect, Endocrine metabolic (in vivo): Hypohidrosis, Increased body temperature, Metabolic acidosis
Serious side effect, Hepatic (in vivo): Hepatic: Liver failure
Serious side effect, Neurologic (in vivo): Neurologic: Drug-induced encephalopathy
Serious side effect, Ophthalmic (in vivo): Ophthalmic: Glaucoma, Myopia, Visual field defect (epilepsy,
Serious side effect, Psychiatric (in vivo): Psychiatric: Suicidal thoughts
Somnolence (in vivo): 10%), Somnolence (6% to 29%)
Visual field defect (in vivo): 0.1% to 1%)
Weight decreased (in vivo): (4% to 21%)

Compound: CN1CCN(C(=O)O[C@H]2c3nccnc3C(=O)N2c2ccc(Cl)cn2)CC1 [Lunesta (eszopiclone)]
Angioedema (in vivo): Other: Angioedema (rare)
Disorder of taste (in vivo): Gastrointestinal: Disorder of taste (8% to 34%), Vomiting (3%)
Dizziness (in vivo): Neurologic: Dizziness (1% to 7%), Headache (13% to 21%),
Headache (in vivo): Neurologic: Dizziness (1% to 7%), Headache (13% to 21%),
Migraine (in vivo): Migraine (1% or greater)
Respiratory tract infection (in vivo): Respiratory: Respiratory tract infection (5% to 10%)
Vomiting (in vivo): Gastrointestinal: Disorder of taste (8% to 34%), Vomiting (3%)

Compound: CCOC(=O)[C@H](CCc1ccccc1)N[C@@H](C)C(=O)N1[C@H](C(=O)O)C[C@@H]2CCC[C@@H]21 [Ramipril (Altace)]
Cough (in vivo): Respiratory: Cough (8% to 12%)
Dizziness (in vivo): Neurologic: Asthenia, Dizziness (2.2% to 4%), Headache (5.4%)
Headache (in vivo): Neurologic: Asthenia, Dizziness (2.2% to 4%), Headache (5.4%)
Hypotension (in vivo): Cardiovascular: Hypotension (11%)

Compound: CCOC(=O)[C@H](CCc1ccccc1)N[C@@H](C)C(=O)N1Cc2ccccc2C[C@H]1C(=O)O [Quinapril (Accupril)]
Chest pain (in vivo): Cardiovascular: Chest pain (2.4%), Hypotension (2.9%)
Cough (in vivo): Respiratory: Cough (2% to 4.3%)
Dizziness (in vivo): Neurologic: Dizziness (3.9% to 7.7%), Headache (1.7% to 6.9%)
Fatigue (in vivo): Other: Fatigue (2.6%)
Headache (in vivo): Neurologic: Dizziness (3.9% to 7.7%), Headache (1.7% to 6.9%)
Hypotension (in vivo): Cardiovascular: Chest pain (2.4%), Hypotension (2.9%)
Nausea and vomiting (in vivo): Gastrointestinal: Nausea and vomiting (1.4% to 2.4%)
Serum blood urea nitrogen raised (in vivo): Renal: Serum blood urea nitrogen raised (2% to 8%), Serum
Serum creatinine raised (in vivo): creatinine raised (2% to 11%)
